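96-well plates; 48 h exposure; 5 concentrations. Endpoints by linear interpolation between flanking doses. Not reached: highest tested concentration assigned. GI50 marks 50% less growth. TGI: total growth inhibition.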
Legend:
Assay in all cases: NCI anticancer screen, dose series, 48 h
COLO 205 colon = tested on: COLO 205 colon
UACC-257 melanoma = tested on: UACC-257 melanoma
A498 renal = tested on: A498 renal
K-562 leukemia = tested on: K-562 leukemia
OVCAR-4 ovarian = tested on: OVCAR-4 ovarian
HS 578T breast = tested on: HS 578T breast
DU-145 prostate = tested on: DU-145 prostate
CAKI-1 renal = tested on: CAKI-1 renal
SK-MEL-28 melanoma = tested on: SK-MEL-28 melanoma
SN12C renal = tested on: SN12C renal
U251 CNS = tested on: U251 CNS
SF-268 CNS = tested on: SF-268 CNS
MDA-MB-435 = tested on: MDA-MB-435
UACC-62 melanoma = tested on: UACC-62 melanoma
HCC-2998 colon = tested on: HCC-2998 colon
RXF 393 renal = tested on: RXF 393 renal
HOP-62 NSCLC = tested on: HOP-62 NSCLC
SF-295 CNS = tested on: SF-295 CNS
OVCAR-3 ovarian = tested on: OVCAR-3 ovarian
HCT-116 colon = tested on: HCT-116 colon
HOP-92 NSCLC = tested on: HOP-92 NSCLC
CCRF-CEM leukemia = tested on: CCRF-CEM leukemia
ACHN renal = tested on: ACHN renal
PC-3 prostate = tested on: PC-3 prostate
LOX IMVI melanoma = tested on: LOX IMVI melanoma
BT-549 breast = tested on: BT-549 breast
MALME-3M melanoma = tested on: MALME-3M melanoma
MOLT-4 leukemia = tested on: MOLT-4 leukemia
A549 NSCLC = tested on: A549 NSCLC
MDA-MB-231 breast = tested on: MDA-MB-231 breast
SNB-19 CNS = tested on: SNB-19 CNS
EKVX NSCLC = tested on: EKVX NSCLC
786-0 renal = tested on: 786-0 renal
M14 melanoma = tested on: M14 melanoma
NCI-H23 lung = tested on: NCI-H23 lung
SK-MEL-5 melanoma = tested on: SK-MEL-5 melanoma
SF-539 CNS = tested on: SF-539 CNS
NCI-H522 lung = tested on: NCI-H522 lung
RPMI-8226 leukemia = tested on: RPMI-8226 leukemia
SNB-75 CNS = tested on: SNB-75 CNS
MCF7 breast = tested on: MCF7 breast
SW-620 colon = tested on: SW-620 colon
HCT-15 colon = tested on: HCT-15 colon
HL-60(TB) leukemia = tested on: HL-60(TB) leukemia
OVCAR-8 ovarian = tested on: OVCAR-8 ovarian
IGROV1 ovarian = tested on: IGROV1 ovarian
KM12 colon = tested on: KM12 colon
HT29 colon = tested on: HT29 colon
OVCAR-5 ovarian = tested on: OVCAR-5 ovarian
NCI-H460 lung = tested on: NCI-H460 lung
SR leukemia = tested on: SR leukemia
UO-31 renal = tested on: UO-31 renal
TK-10 renal = tested on: TK-10 renal
NCI-H226 lung = tested on: NCI-H226 lung
NCI/ADR-RES ovarian = tested on: NCI/ADR-RES ovarian
T-47D breast = tested on: T-47D breast

Structure (SMILES): COc1cc2c(cc1OCCCNC(=O)/C=C1/C[C@H]3C=Nc4cc(OCc5ccccc5)c(OC)cc4C(=O)N3C1)NC(=O)[C@@H]1CCCN1C2=O
- GI50 (COLO 205 colon): 54.6 µM
- TGI (COLO 205 colon): > 100 µM
- GI50 (UACC-257 melanoma): > 100 µM
- TGI (UACC-257 melanoma): > 100 µM
- GI50 (A498 renal): 58.9 µM
- TGI (A498 renal): > 100 µM
- GI50 (K-562 leukemia): 82.8 µM
- TGI (K-562 leukemia): > 100 µM
- GI50 (OVCAR-4 ovarian): 73.8 µM
- TGI (OVCAR-4 ovarian): > 100 µM
- GI50 (HS 578T breast): 34.4 µM
- TGI (HS 578T breast): > 100 µM
- GI50 (DU-145 prostate): 52.1 µM
- TGI (DU-145 prostate): > 100 µM
- GI50 (CAKI-1 renal): > 100 µM
- TGI (CAKI-1 renal): > 100 µM
- GI50 (SK-MEL-28 melanoma): > 100 µM
- TGI (SK-MEL-28 melanoma): > 100 µM
- GI50 (SN12C renal): 18.4 µM
- TGI (SN12C renal): > 100 µM
- GI50 (U251 CNS): 33.3 µM
- TGI (U251 CNS): > 100 µM
- GI50 (SF-268 CNS): 39.6 µM
- TGI (SF-268 CNS): > 100 µM
- GI50 (MDA-MB-435): 44.2 µM
- TGI (MDA-MB-435): > 100 µM
- GI50 (UACC-62 melanoma): 55.2 µM
- TGI (UACC-62 melanoma): > 100 µM
- GI50 (HCC-2998 colon): 60.3 µM
- TGI (HCC-2998 colon): > 100 µM
- GI50 (RXF 393 renal): 33.6 µM
- TGI (RXF 393 renal): > 100 µM
- GI50 (HOP-62 NSCLC): 41.3 µM
- TGI (HOP-62 NSCLC): > 100 µM
- GI50 (SF-295 CNS): 84.7 µM
- TGI (SF-295 CNS): > 100 µM
- GI50 (OVCAR-3 ovarian): > 100 µM
- TGI (OVCAR-3 ovarian): > 100 µM
- GI50 (HCT-116 colon): 73.7 µM
- TGI (HCT-116 colon): > 100 µM
- GI50 (HOP-92 NSCLC): 47.2 µM
- TGI (HOP-92 NSCLC): > 100 µM
- GI50 (CCRF-CEM leukemia): 40.8 µM
- TGI (CCRF-CEM leukemia): > 100 µM
- GI50 (ACHN renal): > 100 µM
- TGI (ACHN renal): > 100 µM
- GI50 (PC-3 prostate): 77.3 µM
- TGI (PC-3 prostate): > 100 µM
- GI50 (LOX IMVI melanoma): 43.3 µM
- TGI (LOX IMVI melanoma): > 100 µM
- GI50 (BT-549 breast): 23.9 µM
- TGI (BT-549 breast): 53.5 µM
- GI50 (MALME-3M melanoma): > 100 µM
- TGI (MALME-3M melanoma): > 100 µM
- GI50 (MOLT-4 leukemia): 29.6 µM
- TGI (MOLT-4 leukemia): > 100 µM
- GI50 (A549 NSCLC): > 100 µM
- TGI (A549 NSCLC): > 100 µM
- GI50 (MDA-MB-231 breast): 50.9 µM
- TGI (MDA-MB-231 breast): > 100 µM
- GI50 (SNB-19 CNS): 43.3 µM
- TGI (SNB-19 CNS): > 100 µM
- GI50 (EKVX NSCLC): > 100 µM
- TGI (EKVX NSCLC): > 100 µM
- GI50 (786-0 renal): 51 µM
- TGI (786-0 renal): > 100 µM
- GI50 (M14 melanoma): 55.3 µM
- TGI (M14 melanoma): > 100 µM
- GI50 (NCI-H23 lung): > 100 µM
- TGI (NCI-H23 lung): > 100 µM
- GI50 (SK-MEL-5 melanoma): 22.5 µM
- TGI (SK-MEL-5 melanoma): 68.1 µM
- GI50 (SF-539 CNS): 32.4 µM
- TGI (SF-539 CNS): 85.5 µM
- GI50 (NCI-H522 lung): 31.3 µM
- TGI (NCI-H522 lung): > 100 µM
- GI50 (RPMI-8226 leukemia): 43.6 µM
- TGI (RPMI-8226 leukemia): > 100 µM
- GI50 (SNB-75 CNS): 32.7 µM
- TGI (SNB-75 CNS): 98.1 µM
- GI50 (MCF7 breast): 32 µM
- TGI (MCF7 breast): > 100 µM
- GI50 (SW-620 colon): 33.3 µM
- TGI (SW-620 colon): > 100 µM
- GI50 (HCT-15 colon): > 100 µM
- TGI (HCT-15 colon): > 100 µM
- GI50 (HL-60(TB) leukemia): 51.9 µM
- TGI (HL-60(TB) leukemia): > 100 µM
- GI50 (OVCAR-8 ovarian): > 100 µM
- TGI (OVCAR-8 ovarian): > 100 µM
- GI50 (IGROV1 ovarian): > 100 µM
- TGI (IGROV1 ovarian): > 100 µM
- GI50 (KM12 colon): 47.5 µM
- TGI (KM12 colon): > 100 µM
- GI50 (HT29 colon): 45.2 µM
- TGI (HT29 colon): > 100 µM
- GI50 (OVCAR-5 ovarian): 93.5 µM
- TGI (OVCAR-5 ovarian): > 100 µM
- GI50 (NCI-H460 lung): 38.9 µM
- TGI (NCI-H460 lung): > 100 µM
- GI50 (SR leukemia): 17.5 µM
- TGI (SR leukemia): 49.2 µM
- GI50 (UO-31 renal): > 100 µM
- TGI (UO-31 renal): > 100 µM
- GI50 (TK-10 renal): > 100 µM
- TGI (TK-10 renal): > 100 µM
- GI50 (NCI-H226 lung): 69.5 µM
- TGI (NCI-H226 lung): > 100 µM
- GI50 (NCI/ADR-RES ovarian): > 100 µM
- TGI (NCI/ADR-RES ovarian): > 100 µM
- GI50 (T-47D breast): > 100 µM
- TGI (T-47D breast): > 100 µM

From PubChem BioAssay (NCI)
